Each structure is given as a SMILES string. The source made the active and inactive calls. No cut-off for these calls is given here. A value given as a limit tells only on which side of the number the result lay.

24 compounds from ChEMBL document CHEMBL3393050, “Fine tuning of 4,6-bisphenyl-2-(3-alkoxyanilino)pyrimidine focusing on the activity-sensitive aminoalkoxy moiety for a therapeutically useful inhibitor of receptor for advanced glycation end products (RAGE)” (Bioorg Med Chem, 2015) can be followed below.

Tested on in the first data set: not listed separately
Briefly: Kinetic solubility in DMSO solution at pH 4 by nephelometry. Format: physicochemical. Particulars: read-out: Kinetic_solubility.
As to `CN(C)C1CCN(CCOc2cccc(Nc3nc(-c4ccc(Cl)cc4)cc(-c4ccc(Cl)cc4)n3)c2)C1.Cl` (stereo unspecified), the solubility kinetic was more than 500 µM.

On to `CCN(CC)CCOc1cccc(Nc2nc(-c3ccc(Cl)cc3)cc(-c3ccc(Cl)cc3)n2)c1.Cl`, for which the solubility kinetic is 372 µM.

Tested on in a further data set: not listed separately
Briefly: Kinetic solubility in DMSO solution at pH 7.4 by nephelometry. Format: physicochemical. The following applies: read-out: Kinetic_solubility.
With `CN(C)C1CCN(CCOc2cccc(Nc3nc(-c4ccc(Cl)cc4)cc(-c4ccc(Cl)cc4)n3)c2)C1.Cl` (stereo unspecified), the solubility kinetic came to 28.2 µM.

In another data set the target is Advanced glycosylation end product-specific receptor (Homo sapiens) (UniProt Q15109). Briefly: Inhibition of biotinylated human RAGE assessed as bound amyloid beta level at 20 uM after 60 mins by ELISA relative to control.
Chain of Advanced glycosylation end product-specific receptor (Homo sapiens) (Q15109 whole entry): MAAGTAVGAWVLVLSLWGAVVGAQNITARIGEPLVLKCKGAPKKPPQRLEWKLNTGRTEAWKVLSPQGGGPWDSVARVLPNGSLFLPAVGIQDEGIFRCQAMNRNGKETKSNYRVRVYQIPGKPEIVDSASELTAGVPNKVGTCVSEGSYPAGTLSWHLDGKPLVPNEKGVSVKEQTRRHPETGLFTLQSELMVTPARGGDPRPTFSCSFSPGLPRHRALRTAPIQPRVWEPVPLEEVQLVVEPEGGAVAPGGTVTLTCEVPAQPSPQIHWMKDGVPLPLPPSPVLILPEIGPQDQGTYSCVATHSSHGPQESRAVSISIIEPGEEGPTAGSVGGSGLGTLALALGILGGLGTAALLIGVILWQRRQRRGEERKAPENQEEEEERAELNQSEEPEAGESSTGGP
Conditions: not given
In general terms: In an ELISA, binding on a coated surface is turned into a signal by an enzyme label.
As for `O=C1CCCN1CCOc1cccc(Nc2nc(-c3ccc(Cl)cc3)cc(-c3ccc(Cl)cc3)n2)c1`, the inhibition entry is “inactive”.

On to `CON(C)C(=O)CCOc1cccc(Nc2nc(-c3ccc(Cl)cc3)cc(-c3ccc(Cl)cc3)n2)c1`, for which the inhibition result is “inactive”.

Regarding `CONC(=O)CCOc1cccc(Nc2nc(-c3ccc(Cl)cc3)cc(-c3ccc(Cl)cc3)n2)c1`, the inhibition result is “inactive”.

Regarding `CCOCCOc1cccc(Nc2nc(-c3ccc(Cl)cc3)cc(-c3ccc(Cl)cc3)n2)c1`, the inhibition entry was “inactive”.

Turning to `O=C1CCN(CCOc2cccc(Nc3nc(-c4ccc(Cl)cc4)cc(-c4ccc(Cl)cc4)n3)c2)CC1`, the inhibition entry was “inactive”.

Consider `O=C(O)CCOc1cccc(Nc2nc(-c3ccc(Cl)cc3)cc(-c3ccc(Cl)cc3)n2)c1`, for which the inhibition entry was “inactive”.

On to `CO/N=C/CCOc1cccc(Nc2nc(-c3ccc(Cl)cc3)cc(-c3ccc(Cl)cc3)n2)c1`, for which the inhibition result was “inactive”.

Consider `Clc1ccc(-c2cc(-c3ccc(Cl)cc3)nc(Nc3cccc(OCCN4CCSCC4)c3)n2)cc1`, for which the inhibition result was “inactive”.

For the compound `Clc1ccc(-c2cc(-c3ccc(Cl)cc3)nc(Nc3cccc(OCCN4CCOCC4)c3)n2)cc1`, the inhibition result is “inactive”.

Regarding `COC(=O)CCOc1cccc(Nc2nc(-c3ccc(Cl)cc3)cc(-c3ccc(Cl)cc3)n2)c1`, the inhibition entry was “inactive”.

The same data set, now with this note: values are per cent of control.
`CCN(CCO)CCOc1cccc(Nc2nc(-c3ccc(Cl)cc3)cc(-c3ccc(Cl)cc3)n2)c1`: the residual binding, % of control is 101%.

In the case of `COC1CCCN(CCOc2cccc(Nc3nc(-c4ccc(Cl)cc4)cc(-c4ccc(Cl)cc4)n3)c2)C1` (stereo unspecified), the residual binding, % of control was 48%.

On to `Clc1ccc(-c2cc(-c3ccc(Cl)cc3)nc(Nc3cccc(OCCN4CCCCC4)c3)n2)cc1`, for which the residual binding, % of control is 112%.

As for `OC1CCCN(CCOc2cccc(Nc3nc(-c4ccc(Cl)cc4)cc(-c4ccc(Cl)cc4)n3)c2)C1` (stereo unspecified), the residual binding, % of control came out at 52%.

With `CN1CCN(CCOc2cccc(Nc3nc(-c4ccc(Cl)cc4)cc(-c4ccc(Cl)cc4)n3)c2)CC1`, the residual binding, % of control was 71%.

For `CCN(CC)CCCOc1cccc(Nc2nc(-c3ccc(Cl)cc3)cc(-c3ccc(Cl)cc3)n2)c1`, the residual binding, % of control came to 84%.

As for `CN(C)CCOc1cccc(Nc2nc(-c3ccc(Cl)cc3)cc(-c3ccc(Cl)cc3)n2)c1`, the residual binding, % of control worked out at 24%.

For the compound `Clc1ccc(-c2cc(-c3ccc(Cl)cc3)nc(Nc3cccc(OCCN4CCCC4)c3)n2)cc1`, the residual binding, % of control was determined as 114%.

On to `CN(C)C1CCN(CCOc2cccc(Nc3nc(-c4ccc(Cl)cc4)cc(-c4ccc(Cl)cc4)n3)c2)C1.Cl` (stereo unspecified), for which the residual binding, % of control is 143%.

For the compound `CN1CCN(c2cccc(Nc3nc(-c4ccc(Cl)cc4)cc(-c4ccc(Cl)cc4)n3)c2)CC1`, the residual binding, % of control turned out to be 74%.

For the compound `CCN(CCOC)CCOc1cccc(Nc2nc(-c3ccc(Cl)cc3)cc(-c3ccc(Cl)cc3)n2)c1`, the residual binding, % of control amounted to 88%.

Regarding `NC1CCN(CCOc2cccc(Nc3nc(-c4ccc(Cl)cc4)cc(-c4ccc(Cl)cc4)n3)c2)C1` (stereo unspecified), the residual binding, % of control was 106%.

With `CC(C)(C)OC(=O)NC1CCN(CCOc2cccc(Nc3nc(-c4ccc(Cl)cc4)cc(-c4ccc(Cl)cc4)n3)c2)C1` (stereo unspecified), the residual binding, % of control worked out at 46%.
